Measurements published in ChEMBL document CHEMBL4831528, “Discovery of Novel Pterostilbene-Based Derivatives as Potent and Orally Active NLRP3 Inflammasome Inhibitors with Inflammatory Activity for Colitis” (J Med Chem, 2021).
Activity calls are given as the source filed them. The calls are words filed in the database; no cut-off is given here.

Tests used:
[1] = Toxicity in C57BL/6 mouse assessed as weight gain at 20 to 40 mg/kg, ig administered for 28 days; type: organism-based; settings: in vivo, po, 672 h, dose 20-40 mg/kg, time 28 day
[2] = target: NACHT, LRR and PYD domains-containing protein 3 (Mus musculus) (UniProt Q8R4B8); experiment: Inhibition of NLRP3 inflammasome activation in LPS-stimulated mouse bone marrow-derived macrophages assessed as reduction in pro caspase1 in cell lysate at 2 uM preincubated for 30 mins followed by MSU addition and measured after 0.5 hrs by Western blot analysis; type: subcellular; settings: Macrophage, time 60.0 min
Sequence of NACHT, LRR and PYD domains-containing protein 3 (Mus musculus) (Q8R4B8 whole entry, the tested form may be a part): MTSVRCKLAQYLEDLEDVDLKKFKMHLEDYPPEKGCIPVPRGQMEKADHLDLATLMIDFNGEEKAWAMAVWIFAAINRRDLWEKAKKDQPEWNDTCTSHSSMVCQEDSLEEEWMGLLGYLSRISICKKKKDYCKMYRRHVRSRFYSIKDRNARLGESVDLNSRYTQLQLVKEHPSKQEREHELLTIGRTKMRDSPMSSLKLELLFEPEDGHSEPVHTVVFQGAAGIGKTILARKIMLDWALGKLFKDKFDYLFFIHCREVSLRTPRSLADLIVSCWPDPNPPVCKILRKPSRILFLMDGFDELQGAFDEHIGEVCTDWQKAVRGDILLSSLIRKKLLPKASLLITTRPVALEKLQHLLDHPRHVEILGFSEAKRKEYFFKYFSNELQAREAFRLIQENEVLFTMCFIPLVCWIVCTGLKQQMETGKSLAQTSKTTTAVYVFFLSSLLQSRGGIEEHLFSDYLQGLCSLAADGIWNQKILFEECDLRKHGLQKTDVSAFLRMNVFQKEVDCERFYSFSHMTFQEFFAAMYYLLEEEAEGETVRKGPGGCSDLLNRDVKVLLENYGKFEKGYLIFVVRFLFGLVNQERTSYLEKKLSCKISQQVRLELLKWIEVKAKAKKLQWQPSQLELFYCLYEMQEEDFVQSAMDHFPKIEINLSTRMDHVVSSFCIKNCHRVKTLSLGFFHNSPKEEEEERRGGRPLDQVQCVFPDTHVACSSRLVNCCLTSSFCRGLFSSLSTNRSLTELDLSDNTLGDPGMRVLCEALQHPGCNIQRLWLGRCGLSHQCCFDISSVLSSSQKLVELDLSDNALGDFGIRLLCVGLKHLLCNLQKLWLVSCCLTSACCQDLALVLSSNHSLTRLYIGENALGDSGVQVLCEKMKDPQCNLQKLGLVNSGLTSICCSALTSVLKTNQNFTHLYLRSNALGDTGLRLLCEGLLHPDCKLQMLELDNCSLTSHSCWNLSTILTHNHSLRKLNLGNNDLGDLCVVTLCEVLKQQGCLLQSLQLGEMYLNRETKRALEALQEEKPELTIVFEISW

[3] = target: NACHT, LRR and PYD domains-containing protein 3 (Mus musculus) (UniProt Q8R4B8); experiment: Binding affinity to NLRP3 in mouse J774A1 cells assessed as thermal stabilization at 50 uM incubated for 30 mins by cellular thermal shift assay; type: cell-based; settings: J774.A1
Mus musculus [4] = experiment: Downregulation of NLRP3 expression in colon of C57BL/6 mouse model of DSS-induced ulcerative colitis at 10 to 20 mg/kg, ig administered for 7 days by Western blot analysis; type: functional, organism-based; settings: dose 10-20 mg/kg, time 7.0 day
Mus musculus [5] = experiment: Anti-inflammatory activity in C57BL/6 mouse DSS-induced acute ulcerative colitis assessed as reduction in disease index at 10 to 20 mg/kg, ig administered for 7 days; type: functional, organism-based; settings: dose 10-20 mg/kg, time 7.0 day
[6] = target: NACHT, LRR and PYD domains-containing protein 3 (Mus musculus) (UniProt Q8R4B8); experiment: Inhibition of NLRP3 inflammasome activation in LPS-stimulated mouse bone marrow-derived macrophages assessed as reduction in IL-1beta secretion at 2 uM preincubated for 30 mins followed by MSU addition and measured after 0.5 hrs by ELISA; type: tissue-based; settings: Macrophage, time 60.0 min
[7] = Toxicity in C57BL/6 mouse assessed as effect on liver at 20 to 40 mg/kg, ig administered for 28 days; type: organism-based; settings: in vivo, po, 672 h, dose 20-40 mg/kg, time 28 day
[8] = target: NACHT, LRR and PYD domains-containing protein 3 (Mus musculus) (UniProt Q8R4B8); experiment: Inhibition of NLRP3 inflammasome activation in LPS-stimulated mouse bone marrow-derived macrophages assessed as reduction in cell pyrolysis at 5 to 25 uM preincubated for 30 mins followed by nigericin addition and measured after 30 mins by Western blot analysis; type: tissue-based; settings: Macrophage, dose 5-25 µM, time 60.0 min
[9] = target: NACHT, LRR and PYD domains-containing protein 3 (Mus musculus) (UniProt Q8R4B8); experiment: Inhibition of NLRP3 inflammasome activation in LPS-stimulated mouse bone marrow-derived macrophages assessed as reduction in cleaved IL-1beta secretion in supernatant at 2 uM preincubated for 30 mins followed by nigericin addition and measured after 0.5 hrs by Western blot analysis; type: tissue-based; settings: Macrophage, time 60.0 min
Macrophage = experiment: Inhibition of NFkappaB activation in LPS-stimulated mouse bone marrow-derived macrophages assessed as reduction in TNFalpha secretion at 0.5 to 2 uM preincubated for 30 mins followed by nigericin addition and measured after 30 mins by ELISA; type: tissue-based; settings: dose 0.5-2 µM, time 60.0 min
[10] = Hepatic clearance in mouse liver microsomes preincubated for 5 mins followed by NADPH addition and measured after 5 to 60 mins by LC-MS/MS analysis; type: ADME, Microsome; settings: time 5-60 min
BMDM [11] = experiment: Effect on NEK7 expression in LPS-stimulated mouse bone marrow-derived macrophages at 0.5 to 2 uM preincubated for 30 mins followed by nigericin addition and measured after 30 mins by Western blot analysis; type: functional, tissue-based; settings: dose 0.5-2 µM, time 60.0 min
Mus musculus [12] = experiment: Downregulation of COX2 expression in colon of C57BL/6 mouse model of DSS-induced ulcerative colitis at 10 to 20 mg/kg, ig administered for 7 days by Western blot analysis; type: functional, organism-based; settings: dose 10-20 mg/kg, time 7.0 day
[13] = Toxicity in C57BL/6 mouse assessed as induction of lethargy at 20 to 40 mg/kg, ig administered for 28 days; type: organism-based; settings: in vivo, po, 672 h, dose 20-40 mg/kg, time 28 day
[14] = Cmax in mouse at 20 mg/kg, po measured up to 24 hrs by LC-MS/MS analysis; type: ADME, organism-based; set-up: route oral, dose 20 mg/kg, time <=24; settings: in vivo
[15] = target: NLR family CARD domain-containing protein 4 (Mus musculus) (UniProt Q3UP24); experiment: Inhibition of NLRC4 inflammasome activation in LPS-stimulated mouse bone marrow-derived macrophages assessed as reduction in IL-1beta secretion at 2 uM preincubated for 30 mins followed by Salmonella addition and measured after 4 hrs by ELISA; type: tissue-based; settings: Macrophage, time 4.5 hrs
Sequence of NLR family CARD domain-containing protein 4 (Mus musculus) (Q3UP24 whole entry, the tested form may be a part): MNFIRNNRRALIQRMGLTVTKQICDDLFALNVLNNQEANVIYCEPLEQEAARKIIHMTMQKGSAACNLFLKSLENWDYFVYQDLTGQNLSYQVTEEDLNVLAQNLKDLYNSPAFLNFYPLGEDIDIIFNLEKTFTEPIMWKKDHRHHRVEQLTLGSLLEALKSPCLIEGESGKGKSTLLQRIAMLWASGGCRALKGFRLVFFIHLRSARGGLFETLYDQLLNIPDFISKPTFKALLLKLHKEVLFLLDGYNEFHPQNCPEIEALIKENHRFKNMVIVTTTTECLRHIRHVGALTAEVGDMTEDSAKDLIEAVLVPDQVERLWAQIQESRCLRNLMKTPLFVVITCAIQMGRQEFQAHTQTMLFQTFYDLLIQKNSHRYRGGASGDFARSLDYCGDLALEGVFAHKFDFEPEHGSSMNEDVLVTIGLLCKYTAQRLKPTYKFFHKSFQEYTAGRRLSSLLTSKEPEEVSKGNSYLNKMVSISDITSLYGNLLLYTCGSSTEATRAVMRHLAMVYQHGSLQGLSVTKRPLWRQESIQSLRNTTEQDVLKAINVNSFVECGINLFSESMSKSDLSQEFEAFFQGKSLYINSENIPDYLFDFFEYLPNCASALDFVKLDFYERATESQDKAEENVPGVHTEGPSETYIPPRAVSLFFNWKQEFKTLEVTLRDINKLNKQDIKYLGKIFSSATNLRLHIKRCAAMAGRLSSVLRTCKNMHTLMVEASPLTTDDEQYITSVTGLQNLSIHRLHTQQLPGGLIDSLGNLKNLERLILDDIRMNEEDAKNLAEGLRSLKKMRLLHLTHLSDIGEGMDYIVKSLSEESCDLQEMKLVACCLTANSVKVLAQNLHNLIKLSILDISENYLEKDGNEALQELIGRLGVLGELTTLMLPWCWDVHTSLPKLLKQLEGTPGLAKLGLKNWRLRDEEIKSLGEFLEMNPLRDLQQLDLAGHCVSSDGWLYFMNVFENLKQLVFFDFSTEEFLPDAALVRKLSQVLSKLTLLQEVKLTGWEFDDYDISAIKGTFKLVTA

[16] = Clearance in mouse at 20 mg/kg, po measured up to 24 hrs by LC-MS/MS analysis; type: ADME, organism-based; settings: in vivo
[17] = target: NACHT, LRR and PYD domains-containing protein 3 (Mus musculus) (UniProt Q8R4B8); experiment: Inhibition of NLRP3 inflammasome activation in LPS-stimulated mouse bone marrow-derived macrophages assessed as reduction in cleaved IL-1beta in supernatant at 2 uM preincubated for 30 mins followed by MSU addition and measured after 0.5 hrs by Western blot analysis; type: tissue-based; settings: Macrophage, time 60.0 min
Mus musculus [18] = experiment: Protection against DSS-induced acute ulcerative colitis in C57BL/6 mouse assessed as reduction in adhesion of colon at 10 to 20 mg/kg, ig administered for 7 days; type: functional, organism-based; settings: dose 10-20 mg/kg, time 7.0 day
BMDM [19] = experiment: Effect on NLRP3 expression in LPS-stimulated mouse bone marrow-derived macrophages at 0.5 to 2 uM preincubated for 30 mins followed by nigericin addition and measured after 30 mins by Western blot analysis; type: functional, tissue-based; settings: dose 0.5-2 µM, time 60.0 min
[20] = target: NACHT, LRR and PYD domains-containing protein 3 (Mus musculus) (UniProt Q8R4B8); experiment: Inhibition of NLRP3 inflammasome activation in LPS-stimulated mouse bone marrow-derived macrophages assessed as reduction in ILbeta secretion at 2 uM preincubated for 30 mins followed by ATP addition and measured after 0.5 hrs by ELISA; type: tissue-based; settings: Macrophage, time 60.0 min
[21] = target: NACHT, LRR and PYD domains-containing protein 3 (Mus musculus, UniProt Q8R4B8); experiment: Inhibition of NLRP3 inflammasome activation in LPS-stimulated mouse bone marrow-derived macrophages assessed as reduction in IL-1beta secretion preincubated for 30 mins followed by nigericin addition and measured after 30 mins by ELISA; type: tissue-based, Macrophage
Sequence of NACHT, LRR and PYD domains-containing protein 3 (Mus musculus, UniProt Q8R4B8) (Q8R4B8 whole entry, the tested form may be a part): as the sequence (Q8R4B8 whole entry, the tested form may be a part) above

[22] = target: NACHT, LRR and PYD domains-containing protein 3 (Homo sapiens, UniProt Q96P20); experiment: Binding affinity to His-GFP fused tagged NLRP3 (unknown origin) expressed in HEK293T incubated for 30 mins by microscale thermophoresis assay; type: cell-based
Sequence of NACHT, LRR and PYD domains-containing protein 3 (Homo sapiens, UniProt Q96P20) (Q96P20 whole entry, the tested form may be a part): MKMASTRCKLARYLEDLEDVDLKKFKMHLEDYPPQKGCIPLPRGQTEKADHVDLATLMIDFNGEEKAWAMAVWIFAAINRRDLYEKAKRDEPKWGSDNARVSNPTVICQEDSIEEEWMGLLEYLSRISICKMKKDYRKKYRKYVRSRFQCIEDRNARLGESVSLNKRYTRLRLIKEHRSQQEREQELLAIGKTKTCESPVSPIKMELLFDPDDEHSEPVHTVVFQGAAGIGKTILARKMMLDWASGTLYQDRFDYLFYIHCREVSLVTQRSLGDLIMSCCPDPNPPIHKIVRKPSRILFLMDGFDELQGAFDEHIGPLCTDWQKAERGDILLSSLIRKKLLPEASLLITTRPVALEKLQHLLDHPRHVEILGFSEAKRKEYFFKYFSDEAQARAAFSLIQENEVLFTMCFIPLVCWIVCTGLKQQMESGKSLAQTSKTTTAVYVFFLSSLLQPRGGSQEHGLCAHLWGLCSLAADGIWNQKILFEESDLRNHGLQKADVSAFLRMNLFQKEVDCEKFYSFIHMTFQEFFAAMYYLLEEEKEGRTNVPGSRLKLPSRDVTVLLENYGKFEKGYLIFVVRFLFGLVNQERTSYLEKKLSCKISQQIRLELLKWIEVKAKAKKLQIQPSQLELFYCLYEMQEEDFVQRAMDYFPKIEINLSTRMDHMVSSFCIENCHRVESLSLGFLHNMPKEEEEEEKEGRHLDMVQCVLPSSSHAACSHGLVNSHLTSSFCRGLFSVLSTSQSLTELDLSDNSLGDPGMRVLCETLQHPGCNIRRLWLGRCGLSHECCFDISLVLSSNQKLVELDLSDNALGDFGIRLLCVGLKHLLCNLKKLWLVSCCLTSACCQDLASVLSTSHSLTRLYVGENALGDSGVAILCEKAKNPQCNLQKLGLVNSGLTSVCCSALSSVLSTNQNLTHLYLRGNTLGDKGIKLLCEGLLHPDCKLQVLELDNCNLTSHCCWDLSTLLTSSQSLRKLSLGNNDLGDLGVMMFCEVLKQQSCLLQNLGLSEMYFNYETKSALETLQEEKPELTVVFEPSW

[23] = Toxicity in C57BL/6 mouse assessed as loose fur at 20 to 40 mg/kg, ig administered for 28 days; type: organism-based; settings: in vivo, po, 672 h, dose 20-40 mg/kg, time 28 day
[24] = target: NACHT, LRR and PYD domains-containing protein 3 (Mus musculus) (UniProt Q8R4B8); experiment: Inhibition of NLRP3 inflammasome activation in LPS-stimulated mouse bone marrow-derived macrophages assessed as reduction in activated caspase1 p20 in supernatant at 2 uM preincubated for 30 mins followed by nigericin addition and measured after 0.5 hrs by Western blot analysis; type: tissue-based; settings: Macrophage, time 60.0 min
[25] = Half life in mouse liver microsomes preincubated for 5 mins followed by NADPH addition and measured after 5 to 60 mins by LC-MS/MS analysis; type: ADME, Microsome; settings: time 5-60 min
[26] = Toxicity in C57BL/6 mouse assessed as induction of anorexia at 20 to 40 mg/kg, ig administered for 28 days; type: organism-based; settings: in vivo, po, 672 h, dose 20-40 mg/kg, time 28 day
[27] = target: NACHT, LRR and PYD domains-containing protein 3 (Mus musculus) (UniProt Q8R4B8); experiment: Inhibition of NLRP3 inflammasome activation in LPS-stimulated mouse bone marrow-derived macrophages assessed as attenuation of ASC polymer at 1 to 4 uM preincubated for 30 mins followed by nigericin addition and measured after 0.5 hrs by Western blot analysis; type: tissue-based; settings: Macrophage, dose 1-4 µM, time 60.0 min
[28] = target: NACHT, LRR and PYD domains-containing protein 3 (Mus musculus) (UniProt Q8R4B8); experiment: Inhibition of NLRP3 inflammasome activation in LPS-stimulated mouse bone marrow-derived macrophages assessed as reduction in caspase1 p20 secretion preincubated for 30 mins followed by nigericin addition and measured after 30 mins by Western blot analysis; type: tissue-based; settings: Macrophage, time 60.0 min
[29] = target: NACHT, LRR and PYD domains-containing protein 3 (Mus musculus) (UniProt Q8R4B8); experiment: Inhibition of NLRP3 inflammasome activation in LPS-stimulated mouse bone marrow-derived macrophages assessed as reduction in caspase1 secretion at 1 to 4 uM preincubated for 30 mins followed by nigericin addition and measured after 0.5 hrs by Western blot analysis; type: tissue-based; settings: Macrophage, dose 1-4 µM

With COc1cc(/C=C/c2ccc(NC(=O)C3CC3)cc2)c(/C=C/[N+](=O)[O-])c(OC)c1 the Activity [1] was “Non-Toxic”, the inhibition [2] was “Active” and the Activity [3] was “Active”. For the same compound, the Activity (Mus musculus [4]) was “Active”, the Activity (Mus musculus [5]) was “Active” and the inhibition [6] was “Active”. The Activity [7] was “Non-Toxic”, the inhibition [8] was “Active” and the inhibition [9] was “Active”. For the same compound, the inhibition (Macrophage) was “inactive”, the CLhep predicted [10] was 52.5 mL/min/kg and the Activity (BMDM [11]) was “inactive”. For the same compound, the Activity (Mus musculus [12]) was “Active”, the Activity [13] was “Non-Toxic” and the Cmax [14] was 95.1 ng/mL. For the same compound, the inhibition [15] was “inactive”, the CL [16] was 152 mL/min/kg and the inhibition [17] was “Active”. For the same compound, the Activity (Mus musculus [18]) was “Active”, the Activity (BMDM [19]) was “inactive” and the inhibition [20] was “Active”. For the same compound, the IC50 [21] was 560 nM, the Kd [22] was 263 nM and the Activity [23] was “Non-Toxic”. The inhibition [24] was “Active”, the half-life [25] was 43.3 min and the Activity [26] was “Non-Toxic”. For the same compound, the inhibition [27] was “Active”, the inhibition [28] was “Dose-Dependent Effect” and the inhibition [29] was “Active”.
